Experimental findings from patent publication US20160361391A1, “REDUCTION OF TRAF1 LEVELS COMBINED WITH NUTRIENT STRESS FOR TREATING LYMPHOCYTE-RELATED CANCERS” (THE GOVERNING COUNCIL OF THE UNIVERSITY OF TORONTO, priority 2014, published 2016) are described below.

What all share (format): cell-based, human
For data set [1], the system named is TRAF1. Nature of the data set: TRAF1 levels by Western blot after shRNA knockdown. Conditions: RAJI and Daudi cells with shRNA to PKN1, versus shCtrl. The procedure:
Left: RAJI cells were stably transfected with control small hairpin (sh) RNA or with shRNA designed to knockdown expression of TRAF1 (shRNAs obtained from Open Biosystems (TRC library number: TRCN0000056885 sequence: […]) (SEQ ID NO:1)). TRAF1 levels in RAJI expressing shCtrl or with shTRAF1 were analyzed by Western blot. Protein loading was analyzed based on GAPDH levels. Right: TRAF1 levels in B-chronic lymphocytic leukemia (CLL) lines and Daudi CD5+ (a Burkitt's lymphoma with CLL like properties) were determined by Western blot.
Left: Schematic diagram of TRAF1 indicating site of phosphorylation by PKN1 as identified by Kato et al.^29 Middle: RAJI cells were stably transfected with control shRNA (shCtrl), TRAF1 shRNA (shTRAF1) or PKN1 shRNA (shPKN1) (obtained from Open Biosystems (TRC library number: TRCN0000001484 sequence: […] (SEQ ID NO:2)). Right: Daudi cells were transduced with control shRNA (shCTRL), shRNA targeting TRAF1 (shTRAF1) or shRNA targeting PKN1 (shPKN1). Cells were analyzed for levels of TRAF1, tubulin or GAPDH by western blot. “Pool” refers to bulk transfected cell lines without subcloning.
Based on the finding that primary T cells lacking TRAF1 are sensitive to loss of TRAF2 when 4-1 BB signalling is induced during nutrient stress, the role of the reduction of TRAF1 levels combined with nutrient stress on B lymphomas was tested. […]

Data set [2] has as its system TRAF2. Nature of the data set: TRAF2 levels by immunoblot during nutrient stress. Conditions: RAJI cells, 1 IU/ml Erwinase, up to 6 hrs. The procedure: (B) Wild type (WT), shCtrl or shTRAF1 RAJI cells were treated with 1 IU/ml Erwinase for 1, 3 or 6 hrs and immunoblotted for TRAF2 and TRAF1.
Right: RAJI cells stably expressing shCtrl or shPKN1 were treated with 1 IU/ml Erwinase for 0, 3 or 6 hrs and lysates were immunoblotted for TRAF2, or as a loading control, GAPDH.
To test the effect of lower levels of TRAF1 on the level of TRAF2 in lymphoma, WT and shTRAF1 RAJI cells were incubated under conditions of nutrient stress (low glutamine). […] In order to mimic conditions of nutrient stress in a manner that can be useful therapeutically, the licensed drug Erwinase (described above) was utilized. […] Of note, in contrast to the work with primary cells, the loss of TRAF2 when TRAF1 is limiting occurred without a need to add reagents to specifically engage a TNFR family member, but rather occurs spontaneously upon nutrient stress.

Data set [3] deals with RAJI cells. Kind of data set: MTT cell viability / growth assay. Conditions: for cell growth / proliferation with Erwinase (MTT): 1 IU/ml Erwinase. On the procedure: MTT reagent was then solubilized with DMSO and absorbance was measured by ELISA plate reader at 560 nm and referenced to absorbance at 620 nm. Data are plotted as fold change relative to untreated shCtrl RAJI cells.
(§1) It was next asked what the effect of reducing TRAF1 and its signalling partner TRAF2 in lymphoma had on cell proliferation and survival. […] To determine whether this effect was due to death of the lymphoma cells, Annexin V and propidium iodide (PI) staining of the lymphomas were analyzed at different times after transfer to Erwinase containing medium. Annexin V binds to phosphatidyl serine, which becomes exposed on the surface of cells as they undergo apoptosis. Then, cells become permeable to propidium iodide upon death. […] The slightly greater effect on cell death of direct TRAF1 knockdown compared to PKN1 knockdown is consistent with the smaller effect of PKN1 knockdown on TRAF1 levels compared to direct TRAF1 knockdown with shTRAF1.
FIG. 7 provides a rationale for a screen for a PKN1 inhibitor that synergizes with Erwinase: In particular, the assay is used to look for inhibitors that act at nanomolar concentration to reduce cell survival. […] Inhibitors that reduce the signal in the MTT assay by at least 3 fold relative to Erwinase alone will be identified as potential PKN1 inhibitors. This initial screen is amenable to a 96 well plate assay in which each drug candidate is tested on control RAJI cells with and without Erwinase as well as shPKN1 RAJI cells with Erwinase. Candidate drugs that lower the signal on control RAJI cells only in the presence but not in the absence of Erwinase, and have no effect on PKN1 knockdown cells treated with Erwinase, represent candidates for kinase inhibitors that act through PKN1 inhibition to reduce TRAF1 levels. The candidates can then be verified by determining the inhibitory effects on TRAF1 levels.

In data set [4] the test system is RAJI cells. Nature of the data set: Annexin V / propidium iodide cell death by flow cytometry, RAJI. The following applies: 1 IU/ml Erwinase. On the procedure: RAJI cells stably expressing control shRNA (shCtrl), TRAF1 shRNA (shTRAF1) or PKN1 shRNA (shPKN1) were left untreated or treated with 1 IU/ml Erwinase for the indicated time points. For cells treated with Erwinase for longer than 24 hrs, cell culture media was replaced every 24 hrs and 1 IU/ml Erwinase was added to ensure the continued absence of glutamine. Cells were then stained with Annexin V-FITC (ebioscience) and Propidium Iodide (PI) and then analyzed by flow cytometry (BD LSR Fortessa). The upper right quadrant (Q2) indicates the fraction dead cells.
(§2) (A) Whole cell extracts from RAJI cells treated with control shRNA (shCTRL) or TRAF2 shRNA (shTRAF2) were immunoblotted for TRAF2 or as a loading control, GAPDH. (B) Annexin V staining of RAJI after Erwinase treatment (1 IU/ml; 24 hrs) in shCTRL, shTRAF1 or shTRAF2 cells.
as §1
A general note: A flow cytometer gives signals particle by particle.

The subject of data set [5] is Chronic lymphocytic leukemia cell line MEC2. Kind of data set: Annexin V / propidium iodide cell death by flow cytometry, MEC2. Conditions: MEC2, 1 IU/ml Erwinase, 0, 18, 24 or 42 hrs. On the procedure: MEC2 cells were transfected with control shRNA (shCTRL), shTRAF1 or shPKN1 and then were left untreated or treated with 1 IU/ml Erwinase for 0, 18, 24 or 42 hrs. Cell death was measured by flow cytometry for Annexin V and propidium iodide (PI), where double staining for Annexin V and Propidium iodide (PI) is used to indicate cell death.

The subject of data set [6] is Erk and NF-κB activation. Nature of the data set: Flow cytometry for pERK and phospho P65 subunit of NFkB. Conditions: RAJI knockdown cells versus control sample.
Excerpt: as §2
(§3) TRAF2 knockdown also decreases RAJI survival in the presence of Erwinase (FIG. 14). […] On the Y axis, is indicated knockdown of TRAF2, PKN1, TRAF1 or control sample. The vertical dashed line indicates the peak level of expression in the control sample for comparison with the knockdown cells.

Data set [7] deals with TRAF1. Kind of data set: TRAF1 levels by flow cytometry in knockdown RAJI. Conditions: RAJI knockdown cells versus control sample.
Excerpt: as §2, §3

The subject of data set [8] is mTORC1. Kind of data set: pS6K / pS6 level as marker of mTORC1 activation. Conditions: RAJI lymphoma cells. From the text:
Left: Levels of pS6K in RAJI control cells. Right: Levels of pS6K in RAJI shTRAF1. Upper panels show pS6K, lower panels show GAPDH to control for equal loading. B. Schematic showing link between nutrient stress, mTORC1 and pS6. C. Left: Representative flow cytometry analysis of TRAF1 and phospho-S6 expression in Raji shCTRL and Raji shTraf1 cells. […] FMO is fluorescence minus one control stain. Right: Correlation plot of TRAF1 versus phospho-S6 expression in lymphoma and CLL cell lines (gated on live cells). All flow cytometry is based on gating on live cells (using live/dead staining marker).
In an effort to understand the mechanism of synergy between lowering TRAF1 levels and increased sensitivity to Erwinase, the activity of mTORC1, a key sensor of the nutrient state of the cells, was examined. Nutrient stress inhibits the activation of mTORC1, a key regulator of proliferation, metabolism and cell survival.^35 PhosphoS6K (pS6K), a downstream target of mTORC1, can be used as a marker of mTORC1 activation. […] However, unexpectedly, TRAF1 knockdown cells had lower basal level of pS6K prior to treatment, perhaps explaining the synergistic effect of TRAF1 knockdown with Erwinase treatment (FIG. 11A—compare right to left western blots). […] Further, a correlation between the level of TRAF1 in the cell and the activity of mTORC1 as measured by pS6 levels was shown (FIG. 11C).

The test system of data set [9] is panel of lymphoma and the CLL line MEC2. Kind of data set: Erwinase sensitivity versus TRAF1 expression in cell line panel. Conditions: 1 IU/ml Erwinase, 24 hours; lines with medium/hi TRAF1 expression. On the procedure: Correlation plot of TRAF1 expression versus Erwinase sensitivity. Cell lines were treated with 1 IU/ml Erwinase for 24 hours and cell death was measured by AnnexinV/PI staining. Erwinase sensitivity is measured as % of cells AnnexinV^+, PI^+ and/or AnnexinV^+/PI^+ cells. Left: Erwinase sensitivity versus TRAF1 expression (measured by flow cytometry, gated on live cells) for a panel of lymphoma and the CLL line MEC2.
PKN1 stabilizes TRAF1 and TRAF1 serine 146, a target of PKN1 is required for TRAF1 stability (see above). As lowering TRAF1 by PKN1 knockdown increases sensitivity to nutrient stress, knockdown of PKN1 with RNA interference or anti-sense approaches, or inhibition of PKN1 using chemical inhibitors could be used to increase sensitivity to nutrient stress. In order to develop this strategy, biomarker needs to be developed to predict which cancers would be susceptible. To this end, TRAF1 protein expression was measured in a panel of human lymphomas and the CLL cell line MEC2 by flow cytometry and these levels were correlated with sensitivity to the nutrient stress-inducing drug Erwinase. […] However, in cells that express TRAF1 above an MFI of 1500, there was a strong correlation between TRAF1 levels and resistance to cell death induced by nutrient stress (FIG. 13). Cancers with these properties are candidates for therapy with PKN1 in combination with nutrient stress.

“shPKN1: shRNA targeting PKN1, sequence CTGATGTGTGAGAAGCGGA (Open Biosystems TRC library)”: in data set [1], the TRAF1 levels entry is on record as “decreases TRAF1 levels”. For the same molecule, the “TRAF2 levels during Erwinase treatment” value in [2] is “sensitizes RAJI cells to TRAF2 loss during nutrient stress”. Also, in data set [3] (RAJI), the “cell growth / proliferation with Erwinase (MTT)” value was “sensitizes lymphoma to growth inhibition by Erwinase”. In addition, in data set [3] (RAJI, complete culture medium, no Erwinase), the “tumour growth rate (MTT)” value is listed as “no impact on the tumour growth rate”. Besides, the “sensitivity to Erwinase induced death (Annexin V/PI)” value was “Increases the Sensitivity of RAJI to Erwinase Induced Death” in data set [4] and “increases the sensitivity of the Chronic lymphocytic leukemia cell line MEC2 to Erwinase induced death” in data set [5].
For the molecule “shTRAF2: shRNA to TRAF2, mature antisense ATGGCGTGGAATCTGCAAGGG”, the “sensitivity to Erwinase induced death (Annexin V/PI)” value in [4] is on record as “increased susceptibility to Erwinase-mediated nutrient stress”. The “constitutive Erk and NF-κB activation” value in [6] is “reduces constitutive Erk and NF-κB activation”. Moreover, the “TRAF1 levels (flow cytometry)” value in [7] is recorded as “lowers TRAF1 levels”.

B1: Erwinase: Licensed drug derived from the Asparaginase of Erwinia chrysanthemi; nutrient stress-inducing agent (protein, UniProt P06608 22-348, looked up)
L-asparaginase: ADKLPNIVILATGGTIAGSAATGTQTTGYKAGALGVDTLINAVPEVKKLANVKGEQFSNMASENMTGDVVLKLSQRVNELLARDDVDGVVITHGTDTVEESAYFLHLTVKSDKPVVFVAAMRPATAISADGPMNLLEAVRVAGDKQSRGRGVMVVLNDRIGSARYITKTNASTLDTFKANEEGYLGVIIGNRIYYQNRIDKLHTTRSVFDVRGLTSLPKVDILYGYQDDPEYLYDAAIQHGVKGIVYAGMGAGSVSVRGIAGMRKAMEKGVVVIRSTRTGNGIVPPDEELPGLVSDSLNPAHARILLMLALTRTSDPKVIQEYFHTY
In the case of B1, in [2], the “TRAF2 levels during Erwinase treatment” value is given as “significant reduction in TRAF2 levels only when TRAF1 was reduced by shRNA”. Also, in data set [3] (RAJI), the “cell growth / proliferation with Erwinase (MTT)” value was “arrest in cell growth”. Moreover, in [3] (control RAJI, 1 IU/ml, 48 hr), the “impact of Erwinase alone in MTT assay” value is “minimal impact”. In [8], the “level of pS6K / pS6” value was “reduced the level of pS6K”. In data set [9], the “Erwinase sensitivity (% AnnexinV+ and/or PI+ cells) versus TRAF1 expression” value is “inverse correlation between TRAF1 levels and Erwinase sensitivity”.
